Measured values reported in patent publication US20230374007A1, “COMPOUNDS AND THEIR USE IN TREATING CANCER” (AstraZeneca AB, priority 2020, published 2023).

Molecular target: T1, cereblon (CRBN)—DNA damage protein 1 (DDB1) complex (Homo sapiens, UniProt Q96SW2)
T1 construct: encoding amino acid residues 1 to 442 (Uniprot Q96SW2); hexahistidine (N); thrombin cleavage site (N); made in house; host or cells: Sf9 insect cells (baculovirus co-infection)
Test: Cereblon HTRF binding assay
Description: The synthesized sequence was designed to encode an N-terminal hexahistidine tag, a thrombin cleavage site, an AviTag™ and a tobacco etch virus protease (TEV) cleavage site followed by the CBRN sequence. The resulting protein sequence is listed below.
The synthesized sequence was designed to encode an N-terminal hexahistidine tag, a tobacco etch virus protease (TEV) cleavage site followed by the DDB1 sequence. […] The linker amino acid residues are underlined and shown in italics.
Baculovirus production of CBRN and DDB1: Recombinant bacmid and P2 virus of CBRN and DDB1 was generated according to the Bac-to-Bac Baculovirus Expression System manual (ThermoFisher Scientific).
Protein Purification: Protein purification was initiated by thawing cells (resuspended in Lysis buffer) at r.t. Once thawed, NaCl was added to a final concentration of 200 mM, followed by 0.01 μL/mL Benzonase™ and the lysate was incubated with slow stirring for 20 minutes. After the freeze-thaw lysis, the whole cell lysate was centrifuged at 48 000 g for 45 minutes and all following purification steps were done on ice or in cold-room. Supernatant (cell lysate) was mixed with 1 mL/50 mL lysate Ni Sepharose™ 6 Fast Flow (Cytiva) pre-equilibrated with Wash buffer (50 mM Tris-Cl pH 8, 20 mM Imidazole, 500 mM NaCl, 10% Glycerol, 1 mM TCEP) and incubated with slow stirring for 1 h. The mix was loaded in a 70 mL open gravity flow column, washed with 10 bed volumes of Wash buffer, and stepwise eluted with 300 mM imidazole in Wash buffer. […] After biotinylation, the CBRN/DDB1 complex was purified by Size Exclusion Chromatography on a HiLoad™ 26/60 Superdex™ 200 column equilibrated in SEC buffer (50 mM HEPES pH 7.5, 200 mM NaCl, 5% glycerol, 1 mM TCEP) before flash-freezing in liquid nitrogen and storage at −80° C.
The assay mixture in a total volume of 4 μL consists of 50 mM Tris-HCl at pH 7.5, 100 mM NaCl, 0.01% Pluronic F127, 1 mM TCEP, 500 μM EDTA, 0.2 nM CRBN-DDB1, 0.2 nM terbium cryptate labeled streptavidin, and 2 nM Cyanine 5-labeled lenalidomide as the probe. […] Reagents were dispensed into the 384-well assay microplate using a Certus Flex liquid dispenser. After incubation for 2 h at r.t., the assay plates were read on a PHERAstar FSX plate reader (BMG Labtech) in the HTRF mode. The raw data from PHERAstar was directly imported into Genedata Screener for analysis. […] The ratio was normalized to positive and negative controls on the same plates to calculate percent inhibition: I %=(I−NC)/(PC−NC), where I are readings from the compound treated well, NC and PC are average readings from negative control wells and positive control wells, respectively. IC50 values were obtained by fitting the I % vs. compound concentration [I] to I %=S0+(SInf−S0)/(1+((IC50/[I])^n)), where S0 is the fitted activity level at zero concentration of test compound, SInf is the fitted activity level at […] concentration of test compound, and n is the hill coefficient of the curve.
The IC50 values reported below are the calculated mean result of one or more experiments.

T1 sequence (Q96SW2 with tags, fused parts or gaps): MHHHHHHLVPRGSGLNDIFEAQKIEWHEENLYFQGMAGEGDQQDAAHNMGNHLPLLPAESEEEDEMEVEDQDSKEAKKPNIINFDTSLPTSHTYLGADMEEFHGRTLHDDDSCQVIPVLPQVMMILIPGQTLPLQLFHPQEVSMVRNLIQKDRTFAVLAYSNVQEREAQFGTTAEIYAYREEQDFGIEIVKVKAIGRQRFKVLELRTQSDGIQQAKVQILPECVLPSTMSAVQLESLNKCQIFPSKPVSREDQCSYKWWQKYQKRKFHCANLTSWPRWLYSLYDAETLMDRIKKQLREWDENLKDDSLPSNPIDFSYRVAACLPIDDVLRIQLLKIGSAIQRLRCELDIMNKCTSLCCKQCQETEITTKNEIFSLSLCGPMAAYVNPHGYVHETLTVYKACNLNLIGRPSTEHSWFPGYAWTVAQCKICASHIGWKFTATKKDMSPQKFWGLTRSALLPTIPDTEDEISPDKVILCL

SMILES | IC50
O=C1CCN(c2ccc3oc(=O)[nH]c3c2)C(=O)N1 [Example 47, 1-(2-Oxo-2,3-dihydrobenzo[d]oxazol-5-yl)dihydropyrimidine-2,4 (1H,3H)-dione] | 3060 nM
Cc1c(-n2ccc(=O)[nH]c2=O)cnc2cc[nH]c12 [Example 48, 1-(7-Methyl-1H-pyrrolo[3,2-b]pyridin-6-yl)pyrimidine-2,4 (1H,3H)-dione] | 1970 nM
Cc1c(N2CCC(=O)NC2=O)cnc2cc[nH]c12 [Example 49, 1-(7-Methyl-1H-pyrrolo[3,2-b]pyridin-6-yl)dihydropyrimidine-2,4 (1H,3H)-dione] | 124 nM
O=C1CCN(c2cc(F)c3cc[nH]c3c2)C(=O)N1 [Example 50, 1-(4-Fluoro-1H-indol-6-yl)dihydropyrimidine-2,4 (1H,3H)-dione] | 226 nM
Cc1cc(N2CCC(=O)NC2=O)cc2[nH]ccc12 [Example 51, 1-(4-Methyl-1H-indol-6-yl)dihydropyrimidine-2,4 (1H,3H)-dione] | 511 nM
COc1cc(N2CCC(=O)NC2=O)cc2[nH]ccc12 [Example 52, 1-(4-Methoxy-1H-indol-6-yl)dihydropyrimidine-2,4 (1H,3H)-dione] | 445 nM
O=C1CCN(c2cc(Cl)c3cc[nH]c3c2)C(=O)N1 [Example 53, 1-(4-Chloro-1H-indol-6-yl)dihydropyrimidine-2,4 (1H,3H)-dione] | 244 nM
O=C1CCN(c2ccc3cc[nH]c3c2F)C(=O)N1 [Example 54, 1-(7-Fluoro-1H-indol-6-yl)dihydropyrimidine-2,4 (1H,3H)-dione] | 188 nM
O=C1CCN(c2ccc3[nH]ccc3c2)C(=O)N1 [Example 56, 1-(1H-Indol-5-yl)dihydropyrimidine-2,4 (1H,3H)-dione] | 341 nM
Cc1c(N2CCC(=O)NC2=O)ccc2cc[nH]c12 [Example 57, 1-(7-Methyl-1H-indol-6-yl)dihydropyrimidine-2,4 (1H,3H)-dione] | 96 nM
Cc1c(N2CCC(=O)NC2=O)c(F)cc2cc[nH]c12 [Example 58, 1-(5-Fluoro-7-methyl-1H-indol-6-yl)dihydropyrimidine-2,4 (1H,3H)-dione] | 288 nM
O=C1CCN(c2cc3[nH]ccc3cc2F)C(=O)N1 [Example 60, 1-(5-Fluoro-1H-indol-6-yl)dihydropyrimidine-2,4 (1H,3H)-dione] | 444 nM
COc1cc2cc[nH]c2cc1N1CCC(=O)NC1=O [Example 61, 1-(5-Methoxy-1H-indol-6-yl)dihydropyrimidine-2,4 (1H,3H)-dione] | 1510 nM
COc1c(N2CCC(=O)NC2=O)ccc2cc[nH]c12 [Example 62, 1-(7-Methoxy-1H-indol-6-yl)dihydropyrimidine-2,4 (1H,3H)-dione] | 2140 nM
O=C1CCN(c2c(F)ccc3[nH]ccc23)C(=O)N1 [Example 63, 1-(5-Fluoro-1H-indol-4-yl)dihydropyrimidine-2,4 (1H,3H)-dione] | 235 nM
O=C1CCN(c2c(Cl)ccc3[nH]ccc23)C(=O)N1 [Example 64, 1-(5-Chloro-1H-indol-4-yl)dihydropyrimidine-2,4 (1H,3H)-dione] | 78 nM
O=C(O)Cc1c[nH]c2cc(N3CCC(=O)NC3=O)ccc12 [Example 65, 2-(6-(2,4-Dioxotetrahydropyrimidin-1 (2H)-yl)-1H-indol-3-yl)acetic acid] | 755 nM
CNC(=O)Cc1c[nH]c2cc(N3CCC(=O)NC3=O)ccc12 [Example 66, 2-(6-(2,4-Dioxotetrahydropyrimidin-1 (2H)-yl)-1H-indol-3-yl)-N-methylacetamide] | 264 nM
CNC(=O)Cc1cc2ccc(N3CCC(=O)NC3=O)cc2[nH]1 [Example 67, 2-(6-(2,4-Dioxotetrahydropyrimidin-1 (2H)-yl)-1H-indol-2-yl)-N-methylacetamide] | 974 nM

SMILES | IC50
CNC(=O)Cn1ccc2ccc(N3CCC(=O)NC3=O)cc21 [Example 68, 2-(6-(2,4-Dioxotetrahydropyrimidin-1 (2H)-yl)-1H-indol-1-yl)-N-methylacetamide] | 2210 nM
CNC(=O)CCn1ccc2ccc(N3CCC(=O)NC3=O)cc21 [Example 69, 3-(6-(2,4-Dioxotetrahydropyrimidin-1 (2H)-yl)-1H-indol-1-yl)-N-methylpropanamide] | 3540 nM
CNC(=O)Cn1ccc2c(N3CCC(=O)NC3=O)cccc21 [Example 70, 2-(4-(2,4-Dioxotetrahydropyrimidin-1 (2H)-yl)-1H-indol-1-yl)-N-methylacetamide] | 1010 nM
O=C1CCN(c2ccc3c(N4CCNCC4)c[nH]c3c2)C(=O)N1 [Example 71, 1-(3-(Piperazin-1-yl)-1H-indol-6-yl)dihydropyrimidine-2,4 (1H,3H)-dione] | 1130 nM
CN1CCN(c2c[nH]c3cc(N4CCC(=O)NC4=O)ccc23)CC1 [Example 72, 1-(3-(4-Methylpiperazin-1-yl)-1H-indol-6-yl)dihydropyrimidine-2,4 (1H,3H)-dione] | 926 nM
CC(=O)N1CCN(c2c[nH]c3cc(N4CCC(=O)NC4=O)ccc23)CC1 [Example 73, 1-(3-(4-Acetylpiperazin-1-yl)-1H-indol-6-yl)dihydropyrimidine-2,4 (1H,3H)-dione] | 963 nM
Cn1cc(N2CCNCC2)c2ccc(N3CCC(=O)NC3=O)cc21 [Example 74, 1-(1-Methyl-3-(piperazin-1-yl)-1H-indol-6-yl)dihydropyrimidine-2,4 (1H,3H)-dione] | 3810 nM
CN1CCN(c2cn(C)c3cc(N4CCC(=O)NC4=O)ccc23)CC1 [Example 75, 1-(1-Methyl-3-(4-methylpiperazin-1-yl)-1H-indol-6-yl)dihydropyrimidine-2,4 (1H,3H)-dione] | 4040 nM
Cn1cc(N2CCNCC2)c2cc(N3CCC(=O)NC3=O)ccc21 [Example 76, 1-(1-Methyl-3-(piperazin-1-yl)-1H-indol-5-yl)dihydropyrimidine-2,4 (1H,3H)-dione] | 1920 nM
O=C1CCN(c2ccc3[nH]cc(N4CCNCC4)c3c2)C(=O)N1 [Example 77, 1-(3-(Piperazin-1-yl)-1H-indol-5-yl)dihydropyrimidine-2,4 (1H,3H)-dione] | 562 nM
CN1CCN(c2c[nH]c3ccc(N4CCC(=O)NC4=O)cc23)CC1 [Example 78, 1-(3-(4-Methylpiperazin-1-yl)-1H-indol-5-yl)dihydropyrimidine-2,4 (1H,3H)-dione] | 1870 nM
CC(=O)N1CCN(c2c[nH]c3ccc(N4CCC(=O)NC4=O)cc23)CC1 [Example 79, 1-(3-(4-Acetylpiperazin-1-yl)-1H-indol-5-yl)dihydropyrimidine-2,4 (1H,3H)-dione] | 1980 nM
CN1CCN(c2cn(C)c3ccc(N4CCC(=O)NC4=O)cc23)CC1 [Example 80, 1-(1-Methyl-3-(4-methylpiperazin-1-yl)-1H-indol-5-yl)dihydropyrimidine-2,4 (1H,3H)-dione] | 3150 nM
O=C1CCN(c2ccc3cc(C4CCNCC4)[nH]c3c2)C(=O)N1 [Example 81, 1-(2-(Piperidin-4-yl)-1H-indol-6-yl)dihydropyrimidine-2,4 (1H,3H)-dione] | 65 nM
CN1CCC(c2cc3ccc(N4CCC(=O)NC4=O)cc3[nH]2)CC1 [Example 82, 1-(2-(1-Methylpiperidin-4-yl)-1H-indol-6-yl)dihydropyrimidine-2,4 (1H,3H)-dione] | 168 nM
CC(=O)N1CCC(c2cc3ccc(N4CCC(=O)NC4=O)cc3[nH]2)CC1 [Example 83, 1-(2-(1-Acetylpiperidin-4-yl)-1H-indol-6-yl)dihydropyrimidine-2,4 (1H,3H)-dione] | 113 nM
Cn1c(C2CCNCC2)cc2ccc(N3CCC(=O)NC3=O)cc21 [Example 84, 1-(1-Methyl-2-(piperidin-4-yl)-1H-indol-6-yl)dihydropyrimidine-2,4 (1H,3H)-dione] | 357 nM
CN1CCC(c2cc3ccc(N4CCC(=O)NC4=O)cc3n2C)CC1 [Example 85, 1-(1-Methyl-2-(1-methylpiperidin-4-yl)-1H-indol-6-yl)dihydropyrimidine-2,4 (1H,3H)-dione] | 195 nM
